Among the data in paper doi:10.1101/2025.11.24.690255v1 (biorxiv, 2025) are Km values, retold here.

The target in the experiment is β-glucosidase B (BglB) (Paenibacillus polymyxa, UniProt P22505). Briefly: hydrolysis monitored at […] nm, Michaelis-Menten nonlinear fit. Type of experiment: biochemical. Conditions: 0-100 mM substrate, 15 min.
Chain of β-glucosidase B (BglB) (P22505 whole entry): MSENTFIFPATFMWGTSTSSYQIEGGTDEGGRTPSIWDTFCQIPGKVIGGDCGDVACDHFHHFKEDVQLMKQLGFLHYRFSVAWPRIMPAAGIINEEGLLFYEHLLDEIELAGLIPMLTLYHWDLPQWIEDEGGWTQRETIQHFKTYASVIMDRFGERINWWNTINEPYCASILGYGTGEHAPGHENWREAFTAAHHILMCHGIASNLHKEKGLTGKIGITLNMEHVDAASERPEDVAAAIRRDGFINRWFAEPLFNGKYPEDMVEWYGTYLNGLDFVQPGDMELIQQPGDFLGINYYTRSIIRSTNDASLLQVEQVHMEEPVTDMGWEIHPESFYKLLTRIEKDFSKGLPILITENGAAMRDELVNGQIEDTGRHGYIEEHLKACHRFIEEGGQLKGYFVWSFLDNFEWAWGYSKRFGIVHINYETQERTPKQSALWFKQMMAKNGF

As for `O=[N+]([O-])c1ccc(O[C@@H]2O[C@H](CO)[C@@H](O)[C@H](O)[C@H]2O)cc1` [pPNG, 4-nitrophenyl-β-D-glucopyranoside], the Km (in general, the substrate concentration at which the rate is half of its maximum) was determined as 5 ± 0.3 mM.
